Source: patent publication US8435980B2 (AbbVie Inc., priority 2009, dated 2013)

molecular target: T1, Cdc7 (BEV coexpressed huCDC7/DBF4) (Homo sapiens, UniProt O00311); experiment: Cdc7 enzyme inhibition assay ([33P]ATP, biotinylated peptide substrate, FlashPlate); assay type: biochemical; conditions: not given
T1 construct: made in house; host or cells: BEV (baculovirus expression vector) co-expression; insect cells are implied but no cell line is named
Procedure: Cdc7 (BEV coexpressed huCDC7/DBF4) is prepared internally. Cdc7 assays are conducted as follows with final concentrations as listed. […] Reactions are quenched after 1 hr by the addition of 90 μL stop buffer (50 mM EDTA, 2M NaCl). […] (Ki) for exemplary compounds.

T1 sequence (O00311 whole entry): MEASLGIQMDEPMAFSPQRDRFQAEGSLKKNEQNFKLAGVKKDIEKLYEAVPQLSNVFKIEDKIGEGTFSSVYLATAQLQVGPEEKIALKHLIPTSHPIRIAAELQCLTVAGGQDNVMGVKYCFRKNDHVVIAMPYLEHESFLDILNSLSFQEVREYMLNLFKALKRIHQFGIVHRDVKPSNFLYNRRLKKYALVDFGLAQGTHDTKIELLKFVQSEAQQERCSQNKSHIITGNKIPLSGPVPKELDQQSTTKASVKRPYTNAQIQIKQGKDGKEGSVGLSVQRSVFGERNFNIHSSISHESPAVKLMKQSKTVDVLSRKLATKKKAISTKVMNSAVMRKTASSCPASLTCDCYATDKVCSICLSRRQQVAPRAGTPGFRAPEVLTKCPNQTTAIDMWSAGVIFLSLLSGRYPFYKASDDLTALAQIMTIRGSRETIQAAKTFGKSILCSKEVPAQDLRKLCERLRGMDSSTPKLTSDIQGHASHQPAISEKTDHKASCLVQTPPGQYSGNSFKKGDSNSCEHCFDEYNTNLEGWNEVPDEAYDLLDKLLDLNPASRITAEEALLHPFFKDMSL
T1 sequence (Q9UBU7 whole entry partner): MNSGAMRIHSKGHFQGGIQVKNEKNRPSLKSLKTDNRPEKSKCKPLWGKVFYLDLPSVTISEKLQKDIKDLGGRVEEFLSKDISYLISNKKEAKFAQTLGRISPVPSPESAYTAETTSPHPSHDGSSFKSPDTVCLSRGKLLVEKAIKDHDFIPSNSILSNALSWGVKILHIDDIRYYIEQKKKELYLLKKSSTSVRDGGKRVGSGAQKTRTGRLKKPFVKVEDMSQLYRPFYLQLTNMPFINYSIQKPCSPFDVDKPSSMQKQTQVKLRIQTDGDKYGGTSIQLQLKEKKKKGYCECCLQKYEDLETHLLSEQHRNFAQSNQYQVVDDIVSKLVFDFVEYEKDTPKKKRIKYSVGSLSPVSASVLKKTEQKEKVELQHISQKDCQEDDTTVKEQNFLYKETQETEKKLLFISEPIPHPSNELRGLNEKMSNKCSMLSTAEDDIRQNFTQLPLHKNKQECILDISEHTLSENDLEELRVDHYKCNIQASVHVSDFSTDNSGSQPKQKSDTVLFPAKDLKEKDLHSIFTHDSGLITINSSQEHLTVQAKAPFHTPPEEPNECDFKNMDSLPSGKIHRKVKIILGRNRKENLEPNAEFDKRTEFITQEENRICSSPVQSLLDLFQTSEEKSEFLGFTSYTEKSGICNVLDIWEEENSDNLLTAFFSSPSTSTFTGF

| Ki [nM] | SMILES |
| --- | --- |
| 10 to 100 | CC(O)CNc1cc(-c2c[nH]c3ncccc23)cc(Cl)n1 (stereo not shown) [Example 39, 1-{[6-chloro-4-(1H-pyrrolo[2,3-b]pyridin-3-yl)pyridin-2-yl]amino}propan-2-ol] |
| 10 to 100 | CC(C)(CO)CNc1cc(-c2c[nH]c3ncccc23)cc(Cl)n1 [Example 40, 3-{[6-chloro-4-(1H-pyrrolo[2,3-b]pyridin-3-yl)pyridin-2-yl]amino}-2,2-dimethylpropan-1-ol] |
| 10 to 100 | OCCOCCNc1cc(-c2c[nH]c3ncccc23)cc(Cl)n1 [Example 41, 2-(2-{[6-chloro-4-(1H-pyrrolo[2,3-b]pyridin-3-yl)pyridin-2-yl]amino}ethoxy)ethanol] |
| < 10 | N[C@H]1CC[C@H](Nc2nc(Cl)cc(-c3c[nH]c4ncccc34)n2)CC1 [Example 42, trans-N-[4-chloro-6-(1H-pyrrolo[2,3-b]pyridin-3-yl)pyrimidin-2-yl]cyclohexane-1,4-diamine] |
| < 10 | O[C@H]1CC[C@H](Nc2nc(Cl)cc(-c3c[nH]c4ncccc34)n2)CC1 [Example 44, Trans-4-{[4-chloro-6-(1H-pyrrolo[2,3-b]pyridin-3-yl)pyrimidin-2-yl]amino}cyclohexanol] |
| 10 to 100 | Clc1cc(-c2c[nH]c3ncccc23)nc(NCc2ccccc2)n1 [Example 46, N-benzyl-4-chloro-6-(1H-pyrrolo[2,3-b]pyridin-3-yl)pyrimidin-2-amine] |
| 10 to 100 | OCC(Cc1ccccc1)Nc1nc(Cl)cc(-c2c[nH]c3ncccc23)n1 (stereo not shown) [Example 47, 2-{[4-chloro-6-(1H-pyrrolo[2,3-b]pyridin-3-yl)pyrimidin-2-yl]amino}-3-phenylpropan-1-ol] |
| 10 to 100 | COC[C@H](Cc1ccccc1)Nc1nc(Cl)cc(-c2c[nH]c3ncccc23)n1 [Example 48, (S)-4-chloro-N-(1-methoxy-3-phenylpropan-2-yl)-6-(1H-pyrrolo[2,3-b]pyridine-3-yl)pyrimidin-2-amine] |
| < 10 | Clc1cc(-c2c[nH]c3ncccc23)nc(NC2CCCCC2)n1 [Example 49, 4-chloro-N-cyclohexyl-6-(1H-pyrrolo[2,3-b]pyridin-3-yl)pyrimidin-2-amine] |

same assay, conditions: Table 3; enzyme inhibition data (Ki)

| Ki [nM] | SMILES |
| --- | --- |
| < 10 | CS(=O)(=O)N1CCC(Nc2cc(-c3c[nH]c4ncccc34)cc(Cl)n2)CC1 [Example 51, 6-chloro-N-[1-(methylsulfonyl)piperidin-4-yl]-4-(1H-pyrrolo[2,3-b]pyridin 3-yl)pyridin-2-amine] |
| < 10 | O=S(=O)(NC1CCC(Nc2cc(-c3c[nH]c4ncccc34)cc(Cl)n2)CC1)c1ccccc1 (stereo not shown) [Example 52, N-(4-{[6-chloro-4-(1H-pyrrolo[2,3-b]pyridin-3-yl)pyridin-2-yl]amino}cyclohexyl)benzenesulfonamide] |
| < 10 | O=S(=O)(Cc1ccccc1)NC1CCC(Nc2cc(-c3c[nH]c4ncccc34)cc(Cl)n2)CC1 (stereo not shown) [Example 53, N-(4-{[6-chloro-4-(1H-pyrrolo[2,3-b]pyridin-3-yl)pyridin-2-yl]amino}cyclohexyl)-1-phenylmethanesulfonamide] |
| < 10 | O=S(=O)(NC1CCC(Nc2cc(-c3c[nH]c4ncccc34)cc(Cl)n2)CC1)c1cccnc1 (stereo not shown) [Example 54, N-(4-{[6-chloro-4-(1H-pyrrolo[2,3-b]pyridin-3-yl)pyridin-2-yl]amino}cyclohexyl)pyridine-3-sulfonamide] |
| < 10 | CCCS(=O)(=O)NC1CCC(Nc2cc(-c3c[nH]c4ncccc34)cc(Cl)n2)CC1 (stereo not shown) [Example 55, N-(4-{[6-chloro-4-(1H-pyrrolo[2,3-b]pyridin-3-yl)pyridin-2-yl]amino}cyclohexyl)propane-1-sulfonamide] |
| < 10 | O=C(NC1CCCC1)NC1CCC(Nc2cc(-c3c[nH]c4ncccc34)cc(Cl)n2)CC1 (stereo not shown) [Example 60, 1-(4-{[6-chloro-4-(1H-pyrrolo[2,3-b]pyridin-3-yl)pyridin-2-yl]amino}cyclohexyl)-3-cyclopentylurea] |
| < 10 | O=S(=O)(N[C@H]1CC[C@H](Nc2cc(-c3c[nH]c4ncccc34)cc(Cl)n2)CC1)C1CC1 [Example 61, N-(trans-4-{[6-chloro-4-(1H-pyrrolo[2,3-b]pyridin-3-yl)pyridin-2-yl]amino}cyclohexyl)cyclopropanesulfonamide] |
| < 10 | CCCNC(=O)NC1CCC(Nc2cc(-c3c[nH]c4ncccc34)cc(Cl)n2)CC1 (stereo not shown) [Example 62, 1-(4-{[6-chloro-4-(1H-pyrrolo[2,3-b]pyridin-3-yl)pyridin-2-yl]amino}cyclohexyl)-3-propylurea] |
| < 10 | O=C(N[C@H]1CC[C@H](Nc2cc(-c3c[nH]c4ncccc34)cc(Cl)n2)CC1)C1CC1 [Example 63, N-(trans-4-{[6-chloro-4-(1H-pyrrolo[2,3-b]pyridin-3-yl)pyridin-2-yl]amino}cyclohexyl)cyclopropanecarboxamide] |
| < 10 | CC(C)C(=O)NC1CCC(Nc2cc(-c3c[nH]c4ncccc34)cc(Cl)n2)CC1 (stereo not shown) [Example 64, N-(4-{[6-chloro-4-(1H-pyrrolo[2,3-b]pyridin-3-yl)pyridin-2-yl]amino}cyclohexyl)-2-methylpropanamide] |
| < 10 | O=C(NC1CCC(Nc2cc(-c3c[nH]c4ncccc34)cc(Cl)n2)CC1)c1ccccc1 (stereo not shown) [Example 65, N-(4-{[6-chloro-4-(1H-pyrrolo[2,3-b]pyridin-3-yl)pyridin-2-yl]amino}cyclohexyl)benzamide] |
| < 10 | O=C(Nc1ccccc1)NC1CCC(Nc2cc(-c3c[nH]c4ncccc34)cc(Cl)n2)CC1 (stereo not shown) [Example 66, 1-(4-{[6-chloro-4-(1H-pyrrolo[2,3-b]pyridin-3-yl)pyridin-2-yl]amino}cyclohexyl)-3-phenylurea] |
| < 10 | Clc1cc(-c2c[nH]c3ncccc23)cc(NC2CCCC(NCc3cccnc3)C2)n1 (stereo not shown) [Example 67, N-[6-chloro-4-(1H-pyrrolo[2,3-b]pyridin-3-yl)pyridin-2-yl]-N′-(pyridin-3-ylmethyl)cyclohexane-1,3-diamine] |
| < 10 | O=C(NC1CCCC(Nc2cc(-c3c[nH]c4ncccc34)cc(Cl)n2)C1)C1CC1 (stereo not shown) [Example 69, N-(3-{[6-chloro-4-(1H-pyrrolo[2,3-b]pyridin-3-yl)pyridin-2-yl]amino}cyclohexyl)cyclopropanecarboxamide] |
| < 10 | O=C(NC1CCCC(Nc2cc(-c3c[nH]c4ncccc34)cc(Cl)n2)C1)c1cc[nH]n1 (stereo not shown) [Example 71, N-(3-{[6-chloro-4-(1H-pyrrolo[2,3-b]pyridin-3-yl)pyridin-2-yl]amino}cyclohexyl)-1H-pyrazole-3-carboxamide] |
| < 10 | O=S(=O)(NC1CCCC(Nc2cc(-c3c[nH]c4ncccc34)cc(Cl)n2)C1)C1CC1 (stereo not shown) [Example 76, N-(3-{[6-chloro-4-(1H-pyrrolo[2,3-b]pyridin-3-yl)pyridin-2-yl]amino}cyclohexyl)cyclopropanesulfonamide] |
| < 10 | CCCS(=O)(=O)NC1CCCC(Nc2cc(-c3c[nH]c4ncccc34)cc(Cl)n2)C1 (stereo not shown) [Example 77, N-(3-{[6-chloro-4-(1H-pyrrolo[2,3-b]pyridin-3-yl)pyridin-2-yl]amino}cyclohexyl)propane-1-sulfonamide] |
| < 10 | Cc1ccc(S(=O)(=O)NC2CCCC(Nc3cc(-c4c[nH]c5ncccc45)cc(Cl)n3)C2)cc1 (stereo not shown) [Example 78, N-(3-{[6-chloro-4-(1H-pyrrolo[2,3-b]pyridin-3-yl)pyridin-2-yl]amino}cyclohexyl)-4-methylbenzenesulfonamide] |

The remaining lines, values behind:

| SMILES | Ki [nM] |
| --- | --- |
| Clc1cc(-c2c[nH]c3ncccc23)cc(NCCN2CCOCC2)n1 [Example 56, 6-chloro-N-[2-(morpholin-4-yl)ethyl]-4-(1H-pyrrolo[2,3-b]pyridin-3-yl)pyridin-2-amine] | < 10 |
| Oc1cccc(CCNc2cc(-c3c[nH]c4ncccc34)cc(Cl)n2)c1 [Example 57, 3-(2-{[6-chloro-4-(1H-pyrrolo[2,3-b]pyridin-3-yl)pyridin-2-yl]amino}ethyl)phenol] | < 10 |
| CC(C)CNC1CCCC(Nc2cc(-c3c[nH]c4ncccc34)cc(Cl)n2)C1 (stereo not shown) [Example 58, N-[6-chloro-4-(1H-pyrrolo[2,3-b]pyridin-3-yl)pyridin-2-yl]-N′-(2-methylpropyl)cyclohexane-1,3-diamine] | < 10 |
| CN(C)C1CCCC(Nc2cc(-c3c[nH]c4ncccc34)cc(Cl)n2)C1 (stereo not shown) [Example 59, N′-[6-chloro-4-(1H-pyrrolo[2,3-b]pyridin-3-yl)pyridin-2-yl]-N,N-dimethylcyclohexane-1,3-diamine] | < 10 |
| Clc1cc(-c2c[nH]c3ncccc23)cc(NC2CCCC(NC3CCC3)C2)n1 (stereo not shown) [Example 68, N-[6-chloro-4-(1H-pyrrolo[2,3-b]pyridin-3-yl)pyridin-2-yl]-1-N′-cyclobutylcyclohexane-1,3-diamine] | < 10 |
| CCCN1CCC(C(=O)NC2CCCC(Nc3cc(-c4c[nH]c5ncccc45)cc(Cl)n3)C2)CC1 (stereo not shown) [Example 70, N-(3-{[6-chloro-4-(1H-pyrrolo[2,3-b]pyridin-3-yl)pyridin-2-yl]amino}cyclohexyl)-1-propylpiperidine-4-carboxamide] | < 10 |
| Clc1cc(-c2c[nH]c3ncccc23)cc(NC2CCCC(NCC3CCCNC3)C2)n1 (stereo not shown) [Example 72, N-[6-chloro-4-(1H-pyrrolo[2,3-b]pyridin-3-yl)pyridin-2-yl]-N′-(piperidin-3-ylmethyl)cyclohexane-1,3-diamine] | < 10 |
| O=C(CNC(=O)c1ccccc1)NC1CCCC(Nc2cc(-c3c[nH]c4ncccc34)cc(Cl)n2)C1 (stereo not shown) [Example 73, N-{2-[(3-{[6-chloro-4-(1H-pyrrolo[2,3-b]pyridin-3-yl)pyridin-2-yl]-amino}cyclohexyl)amino]-2-oxoethyl}benzamide] | < 10 |
| CCNC(=O)NC1CCCC(Nc2cc(-c3c[nH]c4ncccc34)cc(Cl)n2)C1 (stereo not shown) [Example 79, 1-(3-{[6-chloro-4-(1H-pyrrolo[2,3-b]pyridin-3-yl)pyridin-2-yl]amino}cyclohexyl)-3-ethylurea] | < 10 |
| O=C(NC1CCCC1)NC1CCCC(Nc2cc(-c3c[nH]c4ncccc34)cc(Cl)n2)C1 (stereo not shown) [Example 80, 1-(3-{[6-chloro-4-(1H-pyrrolo[2,3-b]pyridin-3-yl)pyridin-2-yl]amino}cyclohexyl)-3-cyclopentylurea] | < 10 |
